Measurements taken from US20110087037A1, “SYNTHESIS OF RING B ABEO-STEROLS AS NOVEL INHIBITORS OF MYCOBACTERIUM TUBERCULOSIS” (priority 2007, published 2011).
In brackets after ≈: the same amount, converted by molar mass. Entries after “also recorded” stand apart in the source; their conditions may differ. Like-named read-outs stand apart in the source and are kept apart here.

Columns and labels:
Mtb H37Rv (ATCC 27294) = test: Microplate Alamar Blue Assay (MABA), in vitro M. tuberculosis growth inhibition; type: cell-based, Mycobacterium tuberculosis; details: for meaningful activity against Mtb: at 64 μg/mL
VERO cells (ATCC CCL-81) = test: Cytotoxicity against VERO cells; type: cell-based
[1] = patients on TB therapy; cited from earlier work
[2] = 2 μg/mL, Mtb H37Rv, MABA, mean of three experiments
[3] = 4 μg/mL, Mtb H37Rv, MABA, mean of three experiments
[4] = 8 μg/mL, Mtb H37Rv, MABA, mean of three experiments
[5] = 16 μg/mL, Mtb H37Rv, MABA, mean of three experiments
[6] = 32 μg/mL, Mtb H37Rv, MABA, mean of three experiments
[7] = 64 μg/mL, Mtb H37Rv, MABA, mean of three experiments
[8] = 128 μg/mL, Mtb H37Rv, MABA, mean of three experiments
[9] = lowest drug concentration that effected an inhibition of ≧90% relative to untreated cultures, Mtb H37Rv

Compound | meaningful activity against Mtb (Mtb H37Rv (ATCC 27294)) | Cyto-toxicity IC50 (VERO cells (ATCC CCL-81)) | % Inhibition (Mtb H37Rv (ATCC 27294); [2]) | % Inhibition (Mtb H37Rv (ATCC 27294); [3]) | % Inhibition (Mtb H37Rv (ATCC 27294); [4]) | % Inhibition (Mtb H37Rv (ATCC 27294); [5]) | % Inhibition (Mtb H37Rv (ATCC 27294); [6]) | % Inhibition (Mtb H37Rv (ATCC 27294); [7]) | % Inhibition (Mtb H37Rv (ATCC 27294); [8]) | MIC (Mtb H37Rv (ATCC 27294); [9]) | Adverse reactions, Infrequent (≧1 per 1,000 patients and <1 per 100 patients) [1] | further results
CC(C)CCC[C@@H](C)[C@H]1CC[C@H]2[C@@H]3CC=C4C[C@@H](O)CC[C@]4(C)[C@H]3CC[C@]12C [Compound 6, cholesterol] | none | – | – | – | – | – | – | – | – | – | – | inhibition at 16 µg/mL (Mtb H37Rv (ATCC 27294); Mycobacterium tuberculosis, 16 μg/mL, Mtb H37Rv, MABA, mean of three experiments): 33%; inhibition at 32 µg/mL (Mtb H37Rv (ATCC 27294); Mycobacterium tuberculosis, 32 μg/mL, Mtb H37Rv, MABA, mean of three experiments): 13%; inhibition at 64 µg/mL (Mtb H37Rv (ATCC 27294); Mycobacterium tuberculosis, 64 μg/mL, Mtb H37Rv, MABA, mean of three experiments): 24%; inhibition at 128 µg/mL (Mtb H37Rv (ATCC 27294); Mycobacterium tuberculosis, 128 μg/mL, Mtb H37Rv, MABA, mean of three experiments): 57%; MIC (Mtb H37Rv (ATCC 27294); Mycobacterium tuberculosis, read-out: MIC): > 128 µg/mL
CC(C)CCC[C@@H](C)[C@H]1CC[C@H]2[C@@H]3C(C=O)=C4C[C@@H](O)CC[C@]4(C)[C@H]3CC[C@]12C [Compound 7] | – | > 128 µg/mL | 10% | 34% | 51% | 96% | 99% | 99% | 99% | 15 µg/mL (≈ 37.4 µM) | – | –
NNC(=O)c1ccncc1 [Isoniazid] | – | – | – | – | – | – | – | – | – | – | Hepatitis; also recorded: Peripheral neuropathy; also recorded: Drug fever | Adverse reactions, Frequent (≧5 per 100 patients) [1]: Liver enzyme
CCC(CCC(C)C1CCC2C3CC=C4CC(O)CCC4(C)C3CCC12C)C(C)C (centres unmarked) [Compound 4] | none | >128 (n.d.) μg/mL | −1% | 8% | 7% | 32% | 31% | 48% | 45% | >128 µg/mL | – | –
CC[C@@H](CO)NCCN[C@@H](CC)CO [Ethambutol] | – | – | – | – | – | – | – | – | – | – | Retrobulbar neuritis; also recorded: Periaxial ocular toxicity | –
CC(C)[C@@H](C)CC[C@@H](C)[C@H]1CC[C@H]2[C@@H]3C(C=O)=C4C[C@@H](O)CC[C@]4(C)[C@H]3CC[C@]12C [Compound 11] | – | – | 39% | 94% | 97% | 99% | 99% | 100% | 99% | 3.9 µg/mL (≈ 9.4 µM) | – | –
CO[C@H]1/C=C/O[C@@]2(C)Oc3c(C)c(O)c4c(O)c(c(/C=N/N5CCN(C)CC5)c(O)c4c3C2=O)NC(=O)/C(C)=C\C=C\[C@H](C)[C@H](O)[C@@H](C)[C@@H](O)[C@@H](C)[C@H](OC(C)=O)[C@@H]1C [RMP, Rifampin] | – | – | – | – | – | – | – | – | – | – | Hepatitis; also recorded: Pruritus; also recorded: Flu syndrome; also recorded: Drug fever | Adverse reactions, Frequent (≧5 per 100 patients) [1]: Liver enzyme elevations; also recorded: Orange discoloration
C=C(CC[C@@H](C)[C@H]1CC[C@H]2[C@@H]3CC=C4C[C@@H](O)CC[C@]4(C)[C@H]3CC[C@]12C)C(C)C [Compound 1] | none | >128 (n.d.) μg/mL | – | – | – | 33% | 43% | 40% | 97% | 120.1 µg/mL (≈ 301 µM) | – | activity against M. tuberculosis H37Rv (Mtb H37Rv (ATCC 27294)): only marginal activity
CC(C)C(=O)CC[C@@H](C)[C@H]1CC[C@H]2[C@@H]3C(C=O)=C4C[C@@H](O)CC[C@]4(C)[C@H]3CC[C@]12C [Compound 3] | – | 43.8 µg/mL | 52% | 67% | 83% | 92% | 96% | 100% | 99% | 13.6 µg/mL (≈ 32.8 µM) | – | –
CC(C)C(C)C1(C)CC1C(C)C1CCC2C3C(C=O)=C4CC(O)CCC4(C)C3CCC12C (centres unmarked) [Compound 9] | – | – | 17% | 33% | 81% | 96% | 98% | 99% | 99% | 12.7 µg/mL (≈ 28.8 µM) | – | –
C=C(CC[C@@H](C)[C@H]1CC[C@H]2[C@@H]3C(C=O)=C4C[C@@H](O)CC[C@]4(C)[C@H]3CC[C@]12C)C(C)C [Compound 2] | – | 51 µg/mL | 52% | 69% | 91% | 105% | 99% | 99% | 99% | 7.8 µg/mL (≈ 18.9 µM) | – | –
CCC(CCC(C)C1CCC2C3C(C=O)=C4CC(O)CCC4(C)C3CCC12C)C(C)C (centres unmarked) [Compound 5] | – | 26.6 µg/mL | 29% | 97% | 99% | 98% | 99% | 99% | 99% | 3.8 µg/mL (≈ 8.86 µM) | – | –
[H]/N=C(/N)N[C@H]1[C@H](O)[C@@H](O)[C@H](O[C@@H]2O[C@@H](C)[C@](O)(C=O)[C@H]2O[C@@H]2O[C@@H](CO)[C@H](O)[C@@H](O)[C@@H]2NC)[C@@H](N/C(N)=N\[H])[C@@H]1O [Streptomycin] | – | – | – | – | – | – | – | – | – | – | Renal damage | Adverse reactions, Common (≧1-5 per 100 patients) [1]: Cochlear toxicity; also recorded: Hypersensitivity; Adverse reactions, Frequent (≧5 per 100 patients) [1]: Vestibular toxicity
CC(C)[C@@H](C)CC[C@@H](C)[C@H]1CC[C@H]2[C@@H]3CC=C4C[C@@H](O)CC[C@]4(C)[C@H]3CC[C@]12C [Compound 10] | none | >128 (n.d.) μg/mL | 15% | 14% | 23% | 21% | 31% | 41% | 58% | >128 µg/mL | – | –
NC(=O)c1cnccn1 [Pyrazinamide] | – | – | – | – | – | – | – | – | – | – | Hepatitis and Rash and Nausea | Adverse reactions, Common (≧1-5 per 100 patients) [1]: Nausea; Adverse reactions, Frequent (≧5 per 100 patients) [1]: Arthralgias
CC(C)C(C)C1(C)CC1C(C)C1CCC2C3CC=C4CC(O)CCC4(C)C3CCC12C (centres unmarked) [Compound 8] | none | >128 (n.d.) μg/mL | – | – | – | 10% | 13% | 18% | 38% | >128 µg/mL | – | –
